Where “and” joins values, the source holds several entries; their conditions need not be identical. Equal entries are not always repeated.
Assays:
animal models [1] = conditions: in vivo
[2] = Mutagenicity studies (in house data)
B16-V melanoma cells = assay: Inhibition of melanin synthesis in B16-V melanoma cells (alpha-MSH stimulated); type: cell-based; conditions: 72 h, alpha-MSH stimulation
Description: DMSO is the solvent as negative and IBMX (3-Isobutyl-1-methylxantine) is our positive control. Kojic acid (KA) is the known reference ingredient for skin whitening.
B16-V melanoma cells were incubated for 72 h with assay medium containing different amounts of test substances. The concentration depends on the results of the MTT-Assay. Only concentrations without effect on viability (after 24 h incubation) were used for further melanin evaluation. Every 24 hours medium was changed and replaced by fresh assay medium containing the compounds and alpha-MSH (stimulation of melanin synthesis). The cell number was determined and the cells got lysed using 1M NaOH. Afterwards the amount of melanin was measured at 405 nm with a microplatereader (Safire2™, Tecan). Different concentrations of synthetic melanin were used to produce a calibration curve. Melanin content was expressed as pg/cell.

PPARα = biological target: T1, PPARα (Homo sapiens, UniProt Q07869); assay: PPARα luciferase reporter gene activation in SK-Hep1 cells cotransfected with PPARα expression vector; type: cell-based; conditions: for Fold Activation PPAR alpha, MEAN: mean of the two experiments in triplicate; for Fold Activation PPAR alpha: single values of triplicates, two experiments, relative to control; for balance of stimulation of PPAR-alpha and -gamma receptors: both receptors activated in the same concentration range
T1 construct: expressed in transfected cells; host or cells: human SK-Hep1 cells
T1 sequence (Q07869 1-468): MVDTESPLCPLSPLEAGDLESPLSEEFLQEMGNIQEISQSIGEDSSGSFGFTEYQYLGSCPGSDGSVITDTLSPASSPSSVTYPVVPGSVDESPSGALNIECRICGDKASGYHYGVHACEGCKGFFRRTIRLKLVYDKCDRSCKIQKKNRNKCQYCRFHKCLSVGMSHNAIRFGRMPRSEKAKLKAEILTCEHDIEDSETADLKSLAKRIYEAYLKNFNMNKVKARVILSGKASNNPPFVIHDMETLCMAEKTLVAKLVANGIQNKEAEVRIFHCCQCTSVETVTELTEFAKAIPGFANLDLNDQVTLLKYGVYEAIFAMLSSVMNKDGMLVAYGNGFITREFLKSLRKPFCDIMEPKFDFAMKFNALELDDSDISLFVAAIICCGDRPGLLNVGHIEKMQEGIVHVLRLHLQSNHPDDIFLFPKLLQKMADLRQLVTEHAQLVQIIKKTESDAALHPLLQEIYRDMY
Excerpt: Analysis of the activation of PPARα and PPARγ is based on the transfection of a DNA allowing the expression of a reporter gene (the gene of luciferase) under the control of the PPARs, either endogenous in the case of PPARγ or cotransfected in the case of PPARα. The reporter plasmid J3TkLuc comprises three copies of the response element for PPARs of the human apo A-II gene (Staels, B et al. (1995), J. Clin. Invest., 95, 705-712) which are cloned upstream of the promoter of the thymidine kinase gene of the herpes simplex virus in the plasmid pGL3. This reporter gene was obtained by subcloning, in the plasmid pGL3, the plasmid J3TkCAT described above (Fajas, L et al. (1997), J. Biol. Chem., 272, 18779-18789). […] These cells were inoculated at a density of 20,000 cells per well (96-well plates) and transfected with 150 ng of reporter DNA complexed with a mixture of lipids. In the case of the SK-Hep1 cells, an expression vector for PPARα, described by Sher, T. et al. (1993), Biochemistry, 32, 5598-5604, is cotransfected. After 5 hours, the cells are washed twice and incubated for 36 hours in the presence of the test compound in a fresh culture medium comprising 10% foetal calf serum. At the end of incubation, the cells are lysed and the luciferase activity is measured.

[3] = Skin sensitization test (in house data)
[4] = tested on: epidermal differentiation proteins; assay: In vitro expression of epidermal differentiation proteins; type: cell-based; conditions: own unpublished results
animal models [5] = assay: Toxicity studies in animal models (in house data); conditions: in vivo
[6] = Phototoxic and photo-allergenic potential (in house data)

Fold Activation PPAR alpha, MEAN (PPARα; 0.3 μm): 1.4 fold
Fold Activation PPAR alpha, MEAN (PPARα; 1 μm): 0.7 fold
Fold Activation PPAR alpha, MEAN (PPARα; 3 μm): 0.8 fold
Fold Activation PPAR alpha, MEAN (PPARα; 10 μm): 1.2 fold
Fold Activation PPAR alpha, MEAN (PPARα; 30 μm): 4.9 fold
Fold Activation PPAR alpha, MEAN (PPARα; 50 μm): 8.0 fold
Fold Activation PPAR alpha, MEAN (PPARα; 100 μm): 6.9 fold
balance of stimulation of PPAR-alpha and -gamma receptors (PPARα): well-balanced stimulation
balance of stimulation of PPAR-alpha and -gamma receptors (PPARα; listed as EMD 336340): balanced activity
SMILES: COc1ccc2c(c1)C(/C=C/C(C)=C/C(=O)O)=CC(C)(C)CO2 [Compound, 5-(7-methoxy-3,3-dimethyl-2,3-dihydro-1-benzoxepin-5-yl)-3-methyl-penta-2,4-dienoic acid]
toxic effect in animal models (animal models [1]): no toxic effect
genotoxicity [2]: not genotoxic
melanin inhibiting activity (melanin content pg/cell, FIG. 1) (B16-V melanoma cells): superb melanin inhibiting activity
melanin inhibiting activity compared with kojic acid (FIG. 1) (B16-V melanoma cells): significantly better than kojic acid
Fold Activation PPAR alpha (PPARα; 0.3 μm): 0.7 fold and 0.8 fold and 0.6 fold and 0.5 fold
Fold Activation PPAR alpha (PPARα; 3 μm): 0.6 fold and 0.7 fold and 1.0 fold and 1.1 fold and 0.8 fold
skin sensitization [3]: no skin sensitization
expression of epidermal differentiation proteins [4]: increased expression
cell proliferation or apoptosis (animal models [5]): no indication
phototoxicity [6]: no phototoxic

From US20140017187A1, “Use of 5-(7-methoxy-3,3-dimethyl-2,3-dihydro-1-benzoxepin-5-yl)-3-methyl-penta-2,4-dienoic acid as a cosmetic” (Merck Patent GmbH, priority 2008, published 2014)
